Laboratory results from ChEMBL document CHEMBL1138844, “Synthesis and biological evaluation of 1-aryl-4,5-dihydro-1H-pyrazolo[3,4-d]pyrimidin-4-one inhibitors of cyclin-dependent kinases” (J Med Chem, 2004).

What was measured:
[1] = system: HCT-116; experiment: Inhibition of human colon carcinoma cell (HCT116) proliferation; assay type: functional, cell-based
[2] = biological target: Cyclin-dependent kinase 4/cyclin D1 (Homo sapiens, UniProt P11802); experiment: Inhibition of Cyclin-dependent kinase 4-cyclin D1; assay type: protein-complex assay
[3] = biological target: Cyclin-dependent kinase 1/cyclin B (Homo sapiens, UniProt P06493); experiment: Inhibition of Cyclin-dependent kinase 1-cyclin B; assay type: protein-complex assay
[4] = biological target: Cyclin-dependent kinase 2/cyclin E (Homo sapiens, UniProt P24941)
Description: Inhibition of Cyclin-dependent kinase 2-cyclin E

Chain of Cyclin-dependent kinase 4/cyclin D1 (P11802 whole entry): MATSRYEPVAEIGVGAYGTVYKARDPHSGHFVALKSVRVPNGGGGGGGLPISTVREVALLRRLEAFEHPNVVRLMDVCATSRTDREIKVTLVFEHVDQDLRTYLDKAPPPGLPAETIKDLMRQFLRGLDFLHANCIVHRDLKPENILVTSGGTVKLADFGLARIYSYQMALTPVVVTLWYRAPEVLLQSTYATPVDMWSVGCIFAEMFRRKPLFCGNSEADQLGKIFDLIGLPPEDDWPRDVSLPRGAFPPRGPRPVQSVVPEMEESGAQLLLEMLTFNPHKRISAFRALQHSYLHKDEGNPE
Chain of Cyclin-dependent kinase 4/cyclin D1 (P24385 whole entry, further chain): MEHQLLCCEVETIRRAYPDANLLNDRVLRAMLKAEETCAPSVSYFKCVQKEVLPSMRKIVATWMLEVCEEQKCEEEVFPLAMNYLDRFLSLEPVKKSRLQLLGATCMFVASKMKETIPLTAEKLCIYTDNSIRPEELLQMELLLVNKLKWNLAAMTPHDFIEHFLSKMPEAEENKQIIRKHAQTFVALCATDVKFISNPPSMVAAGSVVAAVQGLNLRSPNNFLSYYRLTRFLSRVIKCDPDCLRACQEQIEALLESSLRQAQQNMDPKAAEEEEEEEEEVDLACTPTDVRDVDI

Row | SMILES | IC50 [1] [µM] | IC50 [2] [µM] | IC50 [3] [µM] | IC50 [4] [µM]
1 | CCc1nn(-c2c(Cl)cc(Cl)cc2Cl)c2nc(Cc3ccc(O)c(O)c3)[nH]c(=O)c12 | 0.72 | 0.04 | 0.24 | –
2 | CSc1nn(-c2ccc(C)cc2C)c2nc(C)[nH]c(=O)c12 | – | 48 | – | –
3 | CCc1nn(-c2c(Cl)cc(Cl)cc2Cl)c2nc(Cc3cc(O)cc(O)c3)[nH]c(=O)c12 | 0.3 | 0.05 | – | 0.02
4 | CCc1nn(-c2c(Cl)cc(Cl)cc2Cl)c2nc(Cc3ccc(OC)c(OC)c3)[nH]c(=O)c12 | 0.61 | 4.5 | > 0.51 | 0.11
5 | Cc1nc2c(c(CCO)nn2-c2c(Cl)cc(Cl)cc2Cl)c(=O)[nH]1 | – | > 140 | – | –
6 | CSc1nn(-c2c(Cl)cc(Cl)cc2Cl)c2nc(C3CC3)[nH]c(=O)c12 | – | 4.3 | – | 0.4
7 | CCc1nn(-c2c(Cl)cc(Cl)cc2Cl)c2nc(Cc3ccc(N(C)C)cc3)[nH]c(=O)c12 | 0.34 | > 2.1 | > 0.26 | 0.02
8 | CSc1nn(-c2c(Cl)cc(Cl)cc2C(F)(F)F)c2nc(C)[nH]c(=O)c12 | – | 29 | – | –
9 | CCc1nn(-c2c(Cl)cc(Cl)cc2Cl)c2nc(-c3ccc(OC)c(OC)c3)[nH]c(=O)c12 | – | > 21 | – | 0.58
10 | CCc1nn(-c2c(Cl)cc(Cl)cc2Cl)c2nc(Cc3ccccn3)[nH]c(=O)c12 | 3.7 | 9.7 | – | 0.23
11 | CCc1nn(-c2c(Cl)cc(Cl)cc2Cl)c2nc(Cc3ccccc3CO)[nH]c(=O)c12 | 0.49 | 2.9 | > 0.27 | 0.02
12 | CSc1nn(-c2ccc(Cl)cc2)c2nc(C)[nH]c(=O)c12 | – | > 160 | – | –
13 | CSc1nn(-c2c(Cl)cc(Cl)cc2Cl)c2nc(C(C)C)[nH]c(=O)c12 | – | 10 | – | –
14 | CCc1nn(-c2c(Cl)cc(Cl)cc2Cl)c2nc(Cc3ccc(OC)cc3)[nH]c(=O)c12 | 0.6 | 2.2 | 0.15 | 0.01
15 | CSc1nn(-c2c(Cl)cc(Cl)cc2Cl)c2nc(-c3ccco3)[nH]c(=O)c12 | – | 36 | – | –
16 | CSc1nn(-c2ccccc2Cl)c2nc(C)[nH]c(=O)c12 | – | 19 | – | –
17 | CCc1nn(-c2c(Cl)cc(Cl)cc2Cl)c2nc(Cc3ccccc3OC)[nH]c(=O)c12 | 3.4 | > 22 | – | 0.1
18 | CCc1nn(-c2c(Cl)cc(Cl)cc2Cl)c2nc(Cc3cccnc3)[nH]c(=O)c12 | 0.3 | 1.3 | 0.22 | 0.01
19 | CSc1nn(-c2ccc(Cl)cc2Cl)c2nc(C)[nH]c(=O)c12 | – | 37 | – | –
20 | CSc1nn(CCO)c2nc(C)[nH]c(=O)c12 | – | > 210 | – | –
21 | CSCc1nc2c(c(SC)nn2-c2c(Cl)cc(Cl)cc2Cl)c(=O)[nH]1 | – | 15 | – | 0.31

Row | SMILES | IC50 [1] [µM] | IC50 [2] [µM] | IC50 [3] [µM] | IC50 [4] [µM]
22 | CCc1nn(-c2c(Cl)cc(Cl)cc2Cl)c2nc(Cc3ccccc3)[nH]c(=O)c12 | 0.6 | 3 | 0.26 | 0.02
23 | CSc1nn(-c2ccc(C(C)C)cc2)c2nc(C)[nH]c(=O)c12 | – | > 160 | – | –
24 | CCc1nn(-c2c(Cl)cc(Cl)cc2Cl)c2nc(Cc3ccc(OC)c(O)c3)[nH]c(=O)c12 | 0.13 | 0.02 | 0.2 | 0.01
25 | CCc1nn(-c2c(Cl)cc(Cl)cc2Cl)c2nc(Cc3ccc(O)cc3)[nH]c(=O)c12 | 0.09 | 2 | 0.1 | 0.01
26 | CCc1nn(-c2c(Cl)cc(Cl)cc2Cl)c2nc(Cc3ccc(C)c(OC)c3)[nH]c(=O)c12 | 9.5 | 2.1 | – | 0.11
27 | CCc1nn(-c2c(Cl)cc(Cl)cc2Cl)c2nc(Cc3cccc(OC)c3)[nH]c(=O)c12 | 1.7 | 5 | 0.41 | 0.03
28 | CSc1nn(C(C)(C)C)c2nc(C)[nH]c(=O)c12 | – | > 100 | – | –
29 | CSc1nn(-c2cccc(Cl)c2)c2nc(C)[nH]c(=O)c12 | – | > 160 | – | –
30 | CSc1nn(-c2c(Cl)cc(Cl)cc2Cl)c2nc(CCN(C)C(=O)OC(C)(C)C)[nH]c(=O)c12 | – | > 48 | – | 19
31 | CSc1nn(-c2c(Cl)cc(Cl)cc2Cl)c2nc(CCCCCO)[nH]c(=O)c12 | – | 10 | – | 0.42
32 | CCc1nn(-c2c(Cl)cc(Cl)cc2Cl)c2nc(C)n(C)c(=O)c12 | – | > 27 | – | > 27
33 | CCc1nn(-c2c(Cl)cc(Cl)cc2Cl)c2nc(CCSC)[nH]c(=O)c12 | – | 6.5 | – | –
34 | CSc1nn(-c2c(Cl)cc(Cl)cc2Cl)c2nc(CN(C)C(=O)OC(C)(C)C)[nH]c(=O)c12 | – | > 50 | – | –
35 | CCc1nn(-c2c(Cl)cc(Cl)cc2Cl)c2nc(CCCCO)[nH]c(=O)c12 | – | 2.4 | – | 0.25
36 | CSc1nn(-c2cccc(Cl)c2Cl)c2nc(C)[nH]c(=O)c12 | – | 50 | – | –
37 | CCc1nn(-c2c(Cl)cc(Cl)cc2Cl)c2nc(Cc3ccc(O)c(C)c3)[nH]c(=O)c12 | 0.5 | > 2.2 | > 0.27 | 0.02
38 | CCc1nn(-c2c(Cl)cc(Cl)cc2Cl)c2nc(Cc3ccncc3)[nH]c(=O)c12 | 0.55 | 3 | 0.49 | 0.03
39 | C=Cc1nc2c(c(CC)nn2-c2c(Cl)cc(Cl)cc2Cl)c(=O)[nH]1 | – | 2.9 | – | 0.31
40 | CSc1nn(-c2cc(C(F)(F)F)ccc2Cl)c2nc(C)[nH]c(=O)c12 | – | 15 | – | –
41 | Cc1nc2c(c(-c3ccccc3)nn2-c2c(Cl)cc(Cl)cc2Cl)c(=O)[nH]1 | – | > 120 | – | –
42 | CSc1nn(-c2c(Cl)cc(Cl)cc2Cl)c2nc(Cc3ccccc3)[nH]c(=O)c12 | – | 11 | – | 0.44

Row | SMILES | IC50 [1] [µM] | IC50 [2] [µM] | IC50 [3] [µM] | IC50 [4] [µM]
43 | CSc1nn(-c2c(Cl)cc(C(F)(F)F)cc2Cl)c2nc(C)[nH]c(=O)c12 | – | 8 | – | –
44 | CCc1nn(-c2c(Cl)cc(Cl)cc2Cl)c2nc(Cc3ccc(OC)c(C)c3)[nH]c(=O)c12 | 2.1 | > 2.1 | 0.87 | 0.06
45 | CCc1nn(-c2c(Cl)cc(Cl)cc2Cl)c2nc(CCc3ccccc3)[nH]c(=O)c12 | – | 7.1 | – | 1.8
46 | CSc1nn(-c2c(C)cc(Cl)cc2Cl)c2nc(C)[nH]c(=O)c12 | – | 11 | – | –
47 | CSc1nn(-c2ccc(Cl)cc2C)c2nc(C)[nH]c(=O)c12 | – | 74 | – | –
48 | CCCCn1nc(SC)c2c(=O)[nH]c(C)nc21 | – | > 200 | – | –
49 | CCc1nn(-c2c(Cl)cc(Cl)cc2Cl)c2nc(CC(C)C)[nH]c(=O)c12 | – | > 6.3 | – | 0.11
50 | Cc1nc2c(c(CO)nn2-c2c(Cl)cc(Cl)cc2Cl)c(=O)[nH]1 | – | 7 | – | –
51 | CSc1nn(-c2ccccn2)c2nc(C)[nH]c(=O)c12 | – | > 180 | – | –
52 | CSc1nn(-c2ccccc2)c2nc(C)[nH]c(=O)c12 | – | > 180 | – | –
53 | CNCCc1nc2c(c(SC)nn2-c2c(Cl)cc(Cl)cc2Cl)c(=O)[nH]1 | – | 28 | – | 6.6
54 | Cc1nc2c(c(Cc3ccccc3)nn2-c2c(Cl)cc(Cl)cc2Cl)c(=O)[nH]1 | – | > 48 | – | –
55 | Cc1nc2c(cnn2-c2c(Cl)cc(Cl)cc2Cl)c(=O)[nH]1 | – | 12 | – | –
56 | COC(=O)c1nc2c(c(SC)nn2-c2c(Cl)cc(Cl)cc2Cl)c(=O)[nH]1 | – | 240 | – | –
57 | CSc1nn(-c2c(Cl)cc(Cl)cc2Cl)c2nc[nH]c(=O)c12 | – | 95 | – | 2.7
58 | Cc1nc2c(c(C)nn2-c2c(Cl)cc(Cl)cc2Cl)c(=O)[nH]1 | – | 3.5 | – | –
59 | COc1ccccc1-n1nc(SC)c2c(=O)[nH]c(C)nc21 | – | > 83 | – | –
60 | CCc1nn(-c2c(Cl)cc(Cl)cc2Cl)c2c1S(=O)(=O)NC(C)=N2 | – | > 51 | – | > 13
61 | CSc1nn(-c2c(Cl)cccc2Cl)c2nc(C)[nH]c(=O)c12 | – | 5.3 | – | –
62 | CCc1nn(-c2c(Cl)cc(Cl)cc2Cl)c2nc(Cc3cccc(NS(C)(=O)=O)c3)[nH]c(=O)c12 | 0.47 | 0.16 | – | 0.26
63 | CSc1nn(-c2c(Cl)cc(Cl)cc2Cl)c2nc(C(F)(F)F)[nH]c(=O)c12 | – | > 116 | – | –

Row | SMILES | IC50 [1] [µM] | IC50 [2] [µM] | IC50 [3] [µM] | IC50 [4] [µM]
64 | CSc1nn(-c2c(Cl)cc(Cl)cc2Cl)c2nc(Cc3cccs3)[nH]c(=O)c12 | – | 20 | – | –
65 | CSc1nn(-c2c(Cl)cc(Cl)cc2Cl)c2nc(CF)[nH]c(=O)c12 | – | 44 | – | 1.6
66 | CCc1nn(-c2c(Cl)cc(Cl)cc2Cl)c2nc(C)[nH]c(=O)c12 | – | 1.1 | – | 0.14
67 | CSc1nn(-c2cc(C)ccc2C)c2nc(C)[nH]c(=O)c12 | – | 25 | – | –
68 | CCc1nn(-c2c(Cl)cc(Cl)cc2Cl)c2nc(C)nc(N)c12 | – | > 140 | – | –
69 | CCCc1nc2c(c(SC)nn2-c2c(Cl)cc(Cl)cc2Cl)c(=O)[nH]1 | – | 9.1 | – | –
70 | CSc1nn(-c2cc(Cl)ccc2Cl)c2nc(C)[nH]c(=O)c12 | – | 23 | – | –
71 | Cc1nc2c(c(C#N)nn2-c2c(Cl)cc(Cl)cc2Cl)c(=O)[nH]1 | – | > 28 | – | –
72 | CSc1nn(-c2c(Cl)cc(Cl)cc2Cl)c2nc(C(C)O)[nH]c(=O)c12 (stereo unspecified) | – | 27 | – | –
73 | CCCc1nn(-c2c(Cl)cc(Cl)cc2Cl)c2nc(C)[nH]c(=O)c12 | – | 5.7 | – | –
74 | CSc1nn(-c2c(Cl)cc(Cl)cc2Cl)c2nc(CCCO)[nH]c(=O)c12 | – | 13 | – | 0.76
75 | CCc1nn(-c2c(Cl)cc(Cl)cc2Cl)c2nc(Cc3ccccc3O)[nH]c(=O)c12 | 5.5 | > 11 | – | 0.12
76 | CSc1nn(Cc2ccccc2)c2nc(C)[nH]c(=O)c12 | – | > 150 | – | –
77 | CCc1nn(-c2c(Cl)cc(Cl)cc2Cl)c2nc(CCc3cnc[nH]3)[nH]c(=O)c12 | – | 3.6 | – | 0.62
78 | CSc1nn(-c2c(C)cc(C)cc2C)c2nc(C)[nH]c(=O)c12 | – | 37 | – | –
79 | Cc1nc2c(c(C(F)(F)F)nn2-c2c(Cl)cc(Cl)cc2Cl)c(=O)[nH]1 | – | 3.1 | – | –
80 | CCCCc1nn(-c2c(Cl)cc(Cl)cc2Cl)c2nc(C)[nH]c(=O)c12 | – | > 6.5 | – | –
81 | CCc1nc2c(c(CC)nn2-c2c(Cl)cc(Cl)cc2Cl)c(=O)[nH]1 | – | 0.94 | – | 0.09
82 | CCOC(=O)Cc1cccc(Cc2nc3c(c(CC)nn3-c3c(Cl)cc(Cl)cc3Cl)c(=O)[nH]2)c1 | – | > 1.9 | – | 0.15
83 | CCc1nn(-c2c(Cl)cc(Cl)cc2Cl)c2nc(Cc3ccc(Br)cc3)[nH]c(=O)c12 | 2.3 | > 1.2 | – | 0.05
84 | CNCc1nc(O)c2c(SC)nn(-c3c(Cl)cc(Cl)cc3Cl)c2n1 | – | > 57 | – | –
